From ChEMBL document CHEMBL3880428, “Sulfonamide derivative having PGD2 receptor antagonistic activity” (2012)

Columns and labels:
[1] = tested on: Rattus norvegicus; experiment: (§1) Antiallergic activity in Brown Norway rat model of ovalbumin-induced asthma assessed as inhibition of airway hyperresponsiveness at 10 mg/kg, po qd for 3 consecutive days administered 1 hr prior to fourth exposure of antigen relative to control; assay type: functional
[2] = tested on: Rattus norvegicus; experiment: Antiallergic activity in Brown Norway rat model of ovalbumin-induced asthma assessed as inhibition of mucus secretion in airway lavage fluid at 10 mg/kg, po qd for 3 consecutive days administered 1 hr prior to fourth exposure of antigen by ELISA relative to control; assay type: functional
[3] = tested on: Rattus norvegicus; experiment: as §1, with “infiltration of inflammatory cells in bronchoalveoli” for “airway hyperresponsiveness”, “antigen by hemocytometry based light microscopy” for “antigen”; assay type: functional
[4] = tested on: HEK293; experiment: Selectivity ratio of IC50 for PGD2 receptor in human platelets to IC50 for human IP receptor expressed in HEK293 cells by cAMP accumulation assay; assay type: cell-based
[5] = tested on: HEK293; experiment: Selectivity ratio of IC50 for PGD2 receptor in human platelets to IC50 for human EP1 receptor expressed in HEK293 cells by cAMP accumulation assay; assay type: cell-based
[6] = tested on: HEK293; experiment: Selectivity ratio of IC50 for PGD2 receptor in human platelets to IC50 for human EP4 receptor expressed in HEK293 cells by cAMP accumulation assay; assay type: cell-based
[7] = tested on: HEK293; experiment: Selectivity ratio of IC50 for PGD2 receptor in human platelets to IC50 for human EP2 receptor expressed in HEK293 cells by cAMP accumulation assay; assay type: cell-based
[8] = tested on: HEK293; experiment: Selectivity ratio of IC50 for PGD2 receptor in human platelets to IC50 for human EP3 receptor expressed in HEK293 cells by cAMP accumulation assay; assay type: cell-based
[9] = tested on: HEK293; experiment: Selectivity ratio of IC50 for PGD2 receptor in human platelets to IC50 for human FP receptor expressed in HEK293 cells by cAMP accumulation assay; assay type: cell-based
[10] = tested on: HEK293; experiment: Selectivity ratio of IC50 for PGD2 receptor in human platelets to IC50 for human TP receptor expressed in HEK293 cells by cAMP accumulation assay; assay type: cell-based

Compound | inhibition in vivo at 10 mg/kg [1] [%] | inhibition in vivo at 10 mg/kg [2] [%] | inhibition in vivo at 10 mg/kg [3] [%] | Ratio IC50 [4] | Ratio IC50 [5] | Ratio IC50 [6] | Ratio IC50 [7] | Ratio IC50 [8] | Ratio IC50 [9] | Ratio IC50 [10]
CC(C)Oc1ccc(S(=O)(=O)N2CCN(c3ccccc3OCC(=O)O)CC2)cc1 | 59 | 79 | 76 |  |  |  |  |  |  | 
CC(C)Oc1ccc(S(=O)(=O)N2CCN(c3cccc(OCC(=O)O)c3)CC2)cc1 | 50 | 78 | 78 |  |  |  |  |  |  | 
COC(=O)Nc1ccc(N2CCN(S(=O)(=O)c3ccc(OC(C)C)cc3)CC2)cc1OCC(=O)O |  |  |  | > 20 | > 20 | > 20 | > 20 | > 20 | > 20 | > 20
CC(C)Sc1ccc(S(=O)(=O)N2CCN(c3ccc(Cl)c(OCC(=O)O)c3)CC2)cc1 |  |  |  | > 20 | > 20 | > 20 | > 20 | > 20 | > 20 | > 20
CC(C)Oc1ccc(S(=O)(=O)N2CCN(c3ccc(Cl)c(/C=C/C(=O)O)c3)CC2)cc1 |  |  |  | > 20 | > 20 | > 20 | > 20 | > 20 | > 20 | > 20
CC(C)Oc1ccc(S(=O)(=O)N2CCN(c3ccc(Br)c(OCC(=O)O)c3)CC2)cc1 |  |  |  | > 20 | > 20 | > 20 | > 20 | > 20 | > 20 | > 20
CC(C)Oc1ccc(S(=O)(=O)N2CCN(c3ccc(Cl)c(OCC(=O)O)c3)C(C)C2)cc1 (configuration not stated) |  |  |  | > 20 | > 20 | > 20 | > 20 | > 20 | > 20 | > 20
Cc1nnc(-c2ccc(N3CCN(S(=O)(=O)c4ccc(OC(C)C)cc4)CC3)cc2OCC(=O)O)o1 |  |  |  | > 20 | > 20 | > 20 | > 20 | > 20 | > 20 | > 20
CC(C)Oc1ccc(S(=O)(=O)N2CCN(c3ccc(NC(=O)c4ccccc4)c(OCC(=O)O)c3)CC2)cc1 |  |  |  | > 20 | > 20 | > 20 | > 20 | > 20 | > 20 | > 20
CC(C)Oc1ccc(S(=O)(=O)N2CCN(c3ccc(OCc4ccoc4)c(OCC(=O)O)c3)CC2)cc1 |  |  |  | > 20 | > 20 | > 20 | > 20 | > 20 | > 20 | > 20
